# Results reported in patent US4145554A, “3-Nitropyrazole derivatives” (Eli Lilly and Company, priority 1977, dated 1979).
# What was measured:
# [1] = test system: Erwinia amylovora; experiment: Fire blight of pear, in vivo greenhouse test
# Method: An in vivo test was conducted against the fire blight organism, Erwinia amylovora. Plants infected with E. amylovora were sprayed with aqueous dispersions containing 100 ppm. and 500 ppm. of the test compounds. […] The compounds are identified below by their compound numbers in the above listing.
# [2] = secretion in sow's milk; parameters: species or system swine; settings: in vivo
# [3] = test system: Mycoplasma hyopneumoniae; experiment: in vitro tube dilution test (MIC); assay type: cell-based; settings: Mesomycoplasma hyopneumoniae
# [4] = test system: Salmonella sp.; experiment: in vitro tube dilution test (MIC); assay type: cell-based
# Excerpt: Our compound, 1-(2-hydroxyethyl)-3-nitro-4-pyrazolecarboxamide, has been extensively tested in vitro to determine the range of microorganisms against which it is active. The table of data below reports the minimum inhibitory concentration (MIC) at which the compound is effective in controlling a variety of microorganisms in a standard tube dilution test system. The MIC is reported as micrograms of compound per milliliter.
# [5] = test system: Vibrio coli; experiment: in vitro tube dilution test (MIC); assay type: cell-based; settings: Campylobacter coli
# [6] = test system: Streptococcus sp. (group D); experiment: agar dilution technique (MIC); assay type: cell-based
# [7] = test system: avian E. coli; experiment: Colibacillosis in chickens, medicated feed; assay type: in vivo
# [8] = test system: P. multocida; experiment: Pasteurellosis in turkeys; assay type: in vivo; settings: 100 gm./ton
# [9] = test system: Salmonella typhosa; experiment: agar dilution technique (MIC); settings: Salmonella enterica
# [10] = test system: Pasteurella hemolytica; experiment: in vitro tube dilution test (MIC); assay type: cell-based
# [11] = test system: Pseudomonas aeruginosa; experiment: agar dilution technique (MIC); assay type: cell-based
# [12] = test system: P. multocida; experiment: Mice infected with P. multocida, compound injected subcutaneously; assay type: in vivo; settings: 2.5 mg./kg. subcutaneous
# Method: A second test was conducted in much the same way, except that the 3-nitropyrazole was injected to the treated mice subcutaneously at the same time they were infected with the P. multocida culture.
# [13] = test system: Shigella sp.; experiment: agar dilution technique (MIC); assay type: cell-based
# [14] = Growth promotion in swine; assay type: in vivo; settings: 300 gm./ton; 28 days
# Excerpt: The same 3-nitropyrazole tested above was used in a growth promotion test in swine. The pigs weighed 25-30 lbs. when the test began, and were housed and fed according to good commercial practice for 28 days. The pigs in the treated group received feed containing 300 gm. per ton of the 3-nitropyrazole compound.
# [15] = test system: Salmonella typhimurium; experiment: Salmonellosis in chickens, single injection to day-old chicks; assay type: in vivo; settings: Salmonella enterica, TYPHIMURIUM, 168 h; single injection of 60 mg./kg.; seven days; read-out: Survival (converted)
# Outline: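 Five day-old chicks per group received one injection of compound at 60 mg./kg., then were challenged next day by subcutaneous S. typhimurium at a dose lethal to most or all untreated controls. Read-out is survivor count, pooled over repeat groups, with untreated challenged controls run in each batch.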
# [16] = test system: Streptococcus pyogenes; experiment: agar dilution technique (MIC); assay type: cell-based
# [17] = test system: Pseudomonas sp.; experiment: in vitro tube dilution test (MIC); assay type: cell-based
# [18] = test system: Mycoplasma hyorhinis; experiment: in vitro tube dilution test (MIC); assay type: cell-based
# [19] = test system: Salmonella heidelburg 1593; experiment: in vitro tube dilution test (MIC); assay type: cell-based; settings: Salmonella heidelburg 1593 (turkey pancreas), tube dilution
# [20] = test system: Salmonella pullorum Ill.; experiment: in vitro tube dilution test (MIC); assay type: cell-based; settings: Salmonella enterica
# [21] = test system: Salmonella typhimurium 1335; experiment: in vitro tube dilution test (MIC); assay type: cell-based; settings: Salmonella enterica; Salmonella typhimurium 1335 (turkey intestine), tube dilution
# [22] = test system: Citrobacter freundii; experiment: agar dilution technique (MIC); assay type: cell-based
# [23] = 100 gm./ton, 10^-1 dilution challenge, initial weight 940 gm.
# [24] = 100 gm./ton, further test, about 5 weeks of age
# [25] = 200 gm./ton, 10^-1 dilution challenge, initial weight 940 gm.
# [26] = 200 gm./ton, further test, about 5 weeks of age
# [27] = 300 gm./ton feed, about 5 weeks old, 10^-2 dilution challenge, first test
# [28] = 300 gm./ton, 10^-1 dilution challenge, initial weight 940 gm.
structure (smiles),measurement,setting,value
"NC(=O)c1cn(CCO)nc1[N+](=O)[O-] [Compound 32, 1-(2-hydroxyethyl)-3-nitro-4-pyrazolecarboxamide]",Percent Control of fire blight,[1]; 100 ppm.,50%
same,Percent Control of fire blight,[1]; 500 ppm.,92%
same,secretion in sow's milk,[2],secreted in sow's milk
same,MIC,[3],50 µg/mL
same,MIC,[4],3.12 µg/mL
same,MIC,[5],6.25 µg/mL
same,MIC,[6],32 µg/mL
same,Avg. Wt.,[7]; [23],1239 gm.
same,E. coli Lesions,[7]; [23],17/18
same,Mortality,[7]; [23],0/18
same,Mortality,"[7]; 100 gm./ton, approximately 7-week-old chickens",3/12
same,E. coli Lesions,"[7]; 100 gm./ton, approximately 7-week-old chickens, birds which died not examined",5/9
same,Avg. Wt.,[7]; [24],1209 gm.
same,E. coli Lesions,[7]; [24],37/40
same,Mortality,[7]; [24],6/40
same,Avg. Wt.,[7]; [25],1250 gm.
same,E. coli Lesions,[7]; [25],16/18
same,Mortality,[7]; [25],0/18
same,Avg. Wt.,[7]; [26],1353 gm.
same,E. coli Lesions,[7]; [26],31/40
same,Mortality,[7]; [26],2/40
same,E. coli Lesions,[7]; [27],11/30
same,Mortality,[7]; [27],0/30
same,Wt.,[7]; [27],1103 gm.
same,Avg. Wt.,[7]; [28],1302 gm.
same,E. coli Lesions,[7]; [28],5/18
same,Mortality,[7]; [28],0/18
same,Mortality,"[7]; 300 gm./ton, approximately 7-week-old chickens",0/12
same,E. coli Lesions,"[7]; 300 gm./ton, approximately 7-week-old chickens, birds which died not examined",4/12
same,Mortality,"[7]; 600 gm./ton, approximately 7-week-old chickens",0/12
same,E. coli Lesions,"[7]; 600 gm./ton, approximately 7-week-old chickens, birds which died not examined",2/12
same,Mortality,"[7]; 1000 gm./ton, approximately 7-week-old chickens",0/12
same,E. coli Lesions,"[7]; 1000 gm./ton, approximately 7-week-old chickens, birds which died not examined",0/12
same,Mortality Rate,[8],20%
same,Culture Isolation,[8]; about 5 mg./kg./day,1/5
same,Mortality Rate,[8]; about 5 mg./kg./day,1/5
same,MIC,[9],2 µg/mL
same,MIC,[10],< 1.56 µg/mL
same,MIC,[11],128 µg/mL
same,Survival,[12],8/10
same,MIC,[13],16 µg/mL
same,Average Daily Feed Consumption,[14],2.00 lbs.
same,Average Daily Gain,[14],1.01 lbs.
same,Feed/Gain,[14],1.96
same,responders at 60 mg/kg,[15],93.3%
same,MIC,[16],32 µg/mL
same,MIC,[17],12.5 µg/mL
same,MIC,[18],50 µg/mL
same,MIC,[19],< 1.56 µg/mL
same,MIC,[20],< 1.56 µg/mL
same,MIC,[21],6.25 µg/mL
same,MIC,[22],8 µg/mL
